Data on twelve compounds can be found in PubChem BioAssay (NCI).

Assay in all cases: NCI tumour cell line growth inhibition, 48 h
Assay [1] deals with A498 renal.
In assay [2] the test system is SK-MEL-2 melanoma.
Assay [3] has as its system OVCAR-5 ovarian.
Assay [4] has as its system LOX IMVI melanoma.
Assay [5] has as its system SF-539 CNS.
For assay [6], the system named is NCI-H226 lung.
For assay [7], the system named is MALME-3M melanoma.
Assay [8] concerns SR leukemia.
Assay [9] has as its system HOP-92 NSCLC.
Assay [10] relates to MCF7 breast.

“And” between values parts separate entries of the source, which are not always exact repeats. Equal values may be shown once.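 Five compound concentrations were applied to cells in 96-well plates for 48 hours; endpoints were derived by simple linear interpolation of the resulting dose-response curve. GI50 is the concentration that inhibits growth by half. Definition used: TGI = concentration required for complete inhibition of growth.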

For the compound `CSc1nc2nn(Cc3ccccc3)cc2c(=O)[nH]1`, the TGI in [1], in assay [2], in [3], in [4], in [5] and in assay [6] was > 100 µM throughout. The TGI in assay [7], in assay [8] and in assay [9] was > 100 µM in each case.
As for `COc1ccc(NC2=C(I)C(=O)c3ncccc3C2=O)cc1`, the GI50 in assay [1] is 1.74 µM; in assay [2], 1.49 µM; in assay [3] it was 1.69 µM; in assay [4], 0.309 µM; in assay [5], 1.41 µM; in [6], 1.42 µM. Moreover, the GI50 was 1.19 µM in assay [7], 0.546 µM in assay [8] and 1.48 µM in assay [9]. Besides, the TGI is 3.28 µM in assay [1]; 3.18 µM in assay [2]; 3.15 µM in [3]; 1.57 µM in assay [4]; 2.75 µM in assay [5]; 2.83 µM in assay [6]. Further, the TGI in assay [7] turned out to be 2.44 µM; in assay [8] it was 9.61 µM; in assay [9] it was 3.78 µM.
Take `COc1cc(CNCCN2C(=O)c3ccc4c5c(ccc(c35)C2=O)C(=O)N(CCNCc2cc(OC)c(OC)c(OC)c2)C4=O)cc(OC)c1OC`: the GI50 was 0.262 µM in [10]; 0.586 µM in [2]; 0.142 µM in assay [4]; 0.4 µM in assay [5]; 0.0973 µM in [8]. The TGI in assay [10] was found to be 1.05 µM; in assay [2] it was 1.29 µM; in assay [4], 0.421 µM; in assay [5] it was 1.11 µM; in assay [8], 0.311 µM.
On to `COc1cccc(-c2cc(=O)c3cc(N4CCOCC4)ccc3[nH]2)c1`, for which the GI50 was 0.0275 µM in assay [10]; 0.0937 µM in [2]; 0.268 µM in [3]; 0.0261 µM in assay [4]; 0.0193 µM in [5]; 0.0806 µM in [6]. Moreover, the GI50 in [7] was 0.019 µM; in assay [9], 0.246 µM. Moreover, the TGI in assay [10] is 20.1 µM; in assay [3], > 100 µM; in assay [5], 0.0505 µM and 0.42 µM; in assay [8] it was 0.741 µM.
Turning to `CCOc1ccc(/C=C/c2cc(OC)c(OC)c(OC)c2)cc1`, the TGI in [1] is 30.4 µM; in [2], 20.7 µM; in assay [3], > 100 µM; in assay [4], > 100 µM; in assay [5], 3.02 µM; in [6], > 26.1 µM. Further, the TGI in [7] was 28.8 µM; in [8] it was > 100 µM; in assay [9], 93.8 µM.
`OCC[N+]12CCCN1CCC2`: the TGI in assay [1], in [2], in assay [3], in [4], in [5] and in assay [6] was > 100 µM throughout. The TGI in assay [7], in [8] and in assay [9] was > 100 µM in each case.
As for `CCOC(=O)C(CCC(N)=O)(CCC(=O)OC)C(=O)OCC`, the TGI in assay [1], in [3], in assay [4], in [5], in assay [6] and in assay [7] was > 100 µM throughout. In addition, the TGI in assay [8] and in assay [9] was > 100 µM each time.
For the compound `CCCCNS(=O)(=O)c1n[nH]c(=O)[nH]c1=O`, the TGI in assay [1], in assay [10], in assay [2], in assay [3], in [4] and in [5] was > 100 µM each time. The TGI in [6], in assay [7] and in assay [8] was > 100 µM each time.
On to `COC(=O)c1ncc2c(=O)[nH]c3ccccc3c2c1C(=O)OC`, for which the TGI in assay [1], in assay [2], in assay [3], in assay [4], in assay [5] and in [6] was > 100 µM throughout. The TGI in assay [7], in assay [8] and in assay [9] was > 100 µM throughout.
`N#CC1=C(N)NC(=S)NC12Nc1ccccc1S2` (centres undefined): the GI50 was 44.2 µM in assay [2]; 75.7 µM in assay [3]; 17 µM in assay [4]; 14.7 µM in assay [5]; 31.2 µM in assay [6]; 24.2 µM in [7]. In addition, the GI50 is 15.8 µM in assay [8] and 22.4 µM in assay [9]. Also, the TGI was > 100 µM in assay [2]; > 100 µM in assay [3]; 44.7 µM in assay [4]; 41.4 µM in assay [5]; > 100 µM in assay [6]; 56.8 µM in assay [7]. Also, the TGI in assay [8] was 46.8 µM; in assay [9], > 100 µM.
With `C=C1C(=O)O[C@H]2[C@H](OC(C)=O)[C@@H](C)CCCC3(C)OC3CCC3(CO3)[C@H](O)C[C@@H]12` (some centres undefined), the GI50 was 5.02 µM in assay [10]; 26.3 µM in [2]; 2.38 µM in assay [3]; 12.6 µM in [4]; 15.4 µM in [5]; 10.9 µM in assay [6]. For the same compound, the GI50 in assay [7] was 6.01 µM; in assay [8] it was 0.568 µM. Further, the TGI is 28.7 µM in assay [10]; > 100 µM in [2]; 12 µM in assay [3]; 25.2 µM in [4]; 37.1 µM in assay [5]; 31.7 µM in assay [6]. The TGI in assay [7] was 21.6 µM; in [8], 2.26 µM.
For `O=C(/C=C/c1ccccc1O)c1ccc([N+](=O)[O-])cc1`, the TGI in assay [1] was 40.9 µM; in assay [2], 66.8 µM; in assay [3], 41.1 µM; in [4], 33.4 µM; in assay [5], 29.2 µM; in assay [6], 46.1 µM. Further, the TGI in assay [7] was > 100 µM; in assay [8] it was 63.6 µM; in [9], > 100 µM.
